According to article PMC12670405, “Second-Generation AURKA-Targeting PROTACs: Structural Optimization toward in Vivo Degradation in Neuroblastoma” (Journal of Medicinal Chemistry, 2025):

Key:
Assay in all cases: KINOMEscan scanMAX
Type in all cases: binding
Conditions in all cases: read-out: Percent Control
ACVR1 = molecular target: T1, ACVR1 (Homo sapiens, UniProt Q04771)
T1 construct: purchased Eurofins Discovery (DiscoverX KINOMEscan scanMAX)
Experimental: (§1) The kinome-wide binding assay was performed by Eurofins Discovery using the scanMAX screening platform. More information can be found on the Eurofins Discovery Web site.

ACVR1B = molecular target: T2, ACVR1B (Homo sapiens, UniProt P36896)
T2 construct: purchased Eurofins Discovery (DiscoverX KINOMEscan scanMAX)
Experimental: as §1

CLK3 = molecular target: T3, CLK3 (Homo sapiens, UniProt P49761)
T3 construct: purchased Eurofins Discovery (DiscoverX KINOMEscan scanMAX)
Experimental: as §1

CSF1R-autoinhibited = molecular target: T4, CSF1R-autoinhibited (Homo sapiens, UniProt P07333)
T4 construct: purchased Eurofins Discovery (DiscoverX KINOMEscan scanMAX)
Experimental: as §1

CSNK1G1 = molecular target: T5, CSNK1G1 (Homo sapiens, UniProt Q9HCP0)
T5 construct: purchased Eurofins Discovery (DiscoverX KINOMEscan scanMAX)
Experimental: as §1

ERK5 = molecular target: T6, ERK5 (Homo sapiens, UniProt Q13164)
T6 construct: purchased Eurofins Discovery (DiscoverX KINOMEscan scanMAX)
T6 sequence (Q13164 whole entry): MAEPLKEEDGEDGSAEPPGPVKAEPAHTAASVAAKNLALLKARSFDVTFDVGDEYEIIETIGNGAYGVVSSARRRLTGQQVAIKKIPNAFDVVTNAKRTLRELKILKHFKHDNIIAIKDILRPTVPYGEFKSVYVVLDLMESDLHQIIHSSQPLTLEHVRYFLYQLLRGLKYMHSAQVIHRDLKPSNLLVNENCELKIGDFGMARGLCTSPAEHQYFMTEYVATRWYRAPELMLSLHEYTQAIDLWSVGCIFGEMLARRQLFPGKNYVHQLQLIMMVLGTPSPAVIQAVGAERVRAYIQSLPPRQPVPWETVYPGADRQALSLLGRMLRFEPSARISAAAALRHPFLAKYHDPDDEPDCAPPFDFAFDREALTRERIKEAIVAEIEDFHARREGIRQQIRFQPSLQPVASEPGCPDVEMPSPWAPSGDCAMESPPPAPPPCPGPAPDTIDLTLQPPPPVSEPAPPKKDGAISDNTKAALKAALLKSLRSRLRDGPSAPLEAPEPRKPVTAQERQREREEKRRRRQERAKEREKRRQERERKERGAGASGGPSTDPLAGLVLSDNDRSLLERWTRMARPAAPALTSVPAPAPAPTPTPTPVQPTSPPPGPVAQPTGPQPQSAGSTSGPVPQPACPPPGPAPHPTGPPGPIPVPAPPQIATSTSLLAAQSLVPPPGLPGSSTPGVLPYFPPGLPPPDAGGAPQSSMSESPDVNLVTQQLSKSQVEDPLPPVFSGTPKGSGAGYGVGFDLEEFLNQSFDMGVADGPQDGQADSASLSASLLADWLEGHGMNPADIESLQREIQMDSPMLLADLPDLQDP
Experimental: as §1

FAK = molecular target: T7, FAK (Homo sapiens, UniProt Q05397)
T7 construct: purchased Eurofins Discovery (DiscoverX KINOMEscan scanMAX)
Experimental: as §1

FLT3(D835H) = molecular target: T8, FLT3(D835H) (Homo sapiens, UniProt P36888, D835H)
T8 construct: purchased Eurofins Discovery (DiscoverX KINOMEscan scanMAX)
Experimental: as §1

FRK = molecular target: T9, FRK (Homo sapiens, UniProt P42685)
T9 construct: purchased Eurofins Discovery (DiscoverX KINOMEscan scanMAX)
Experimental: as §1

HCK = molecular target: T10, HCK (Homo sapiens, UniProt P08631)
T10 construct: purchased Eurofins Discovery (DiscoverX KINOMEscan scanMAX)
Experimental: as §1

HIPK2 = molecular target: T11, HIPK2 (Homo sapiens, UniProt Q9H2X6)
T11 construct: purchased Eurofins Discovery (DiscoverX KINOMEscan scanMAX)
Experimental: as §1

HIPK3 = molecular target: T12, HIPK3 (Homo sapiens, UniProt Q9H422)
T12 construct: purchased Eurofins Discovery (DiscoverX KINOMEscan scanMAX)
T12 sequence (Q9H422 whole entry): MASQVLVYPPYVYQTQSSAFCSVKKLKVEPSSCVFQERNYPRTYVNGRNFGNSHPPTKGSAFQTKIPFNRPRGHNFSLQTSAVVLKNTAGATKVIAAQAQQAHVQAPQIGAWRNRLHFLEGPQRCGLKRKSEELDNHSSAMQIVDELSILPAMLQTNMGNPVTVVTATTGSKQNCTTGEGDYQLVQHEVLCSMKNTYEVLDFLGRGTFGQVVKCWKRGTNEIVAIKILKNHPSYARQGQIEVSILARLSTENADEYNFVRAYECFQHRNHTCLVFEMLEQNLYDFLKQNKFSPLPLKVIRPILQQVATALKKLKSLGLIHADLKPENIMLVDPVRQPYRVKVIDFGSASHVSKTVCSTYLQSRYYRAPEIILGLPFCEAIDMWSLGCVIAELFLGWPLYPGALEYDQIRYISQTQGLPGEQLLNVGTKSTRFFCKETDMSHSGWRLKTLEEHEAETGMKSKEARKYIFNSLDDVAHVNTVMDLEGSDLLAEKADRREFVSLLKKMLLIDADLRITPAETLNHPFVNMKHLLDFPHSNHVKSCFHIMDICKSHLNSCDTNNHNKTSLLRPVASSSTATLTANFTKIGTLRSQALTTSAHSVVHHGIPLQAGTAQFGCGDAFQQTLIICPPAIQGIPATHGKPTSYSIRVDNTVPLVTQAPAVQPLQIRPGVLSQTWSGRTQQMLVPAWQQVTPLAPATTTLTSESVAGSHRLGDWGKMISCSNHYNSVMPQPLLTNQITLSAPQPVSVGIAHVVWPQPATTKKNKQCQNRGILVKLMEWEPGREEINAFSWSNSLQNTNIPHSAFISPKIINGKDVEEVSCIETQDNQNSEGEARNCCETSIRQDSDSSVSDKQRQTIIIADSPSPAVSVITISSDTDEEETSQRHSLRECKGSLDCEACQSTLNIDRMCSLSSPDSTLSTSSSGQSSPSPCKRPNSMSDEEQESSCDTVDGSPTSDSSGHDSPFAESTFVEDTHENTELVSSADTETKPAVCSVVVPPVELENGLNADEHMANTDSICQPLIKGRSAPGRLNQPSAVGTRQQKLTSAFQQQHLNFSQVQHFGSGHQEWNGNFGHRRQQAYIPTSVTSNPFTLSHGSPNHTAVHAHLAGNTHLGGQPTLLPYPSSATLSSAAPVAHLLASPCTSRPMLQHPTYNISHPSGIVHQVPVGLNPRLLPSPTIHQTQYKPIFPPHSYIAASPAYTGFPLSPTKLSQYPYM
Experimental: as §1

ICK = molecular target: T13, ICK (Homo sapiens, UniProt Q9UPZ9)
T13 construct: purchased Eurofins Discovery (DiscoverX KINOMEscan scanMAX)
Experimental: as §1

IGF1R = molecular target: T14, IGF1R (Homo sapiens, UniProt P08069)
T14 construct: purchased Eurofins Discovery (DiscoverX KINOMEscan scanMAX)
Experimental: as §1

KIT(D816H) = molecular target: T15, KIT(D816H) (Homo sapiens, UniProt P10721, D816H)
T15 construct: purchased Eurofins Discovery (DiscoverX KINOMEscan scanMAX)
Experimental: as §1

MERTK = molecular target: T16, MERTK (Homo sapiens, UniProt Q12866)
T16 construct: purchased Eurofins Discovery (DiscoverX KINOMEscan scanMAX)
Experimental: as §1

MYO3A = molecular target: T17, MYO3A (Homo sapiens, UniProt Q8NEV4)
T17 construct: purchased Eurofins Discovery (DiscoverX KINOMEscan scanMAX)
Experimental: as §1

NEK10 = molecular target: T18, NEK10 (Homo sapiens, UniProt Q6ZWH5)
T18 construct: purchased Eurofins Discovery (DiscoverX KINOMEscan scanMAX)
Experimental: as §1

PCTK1 = molecular target: T19, PCTK1 (Homo sapiens, UniProt Q00536)
T19 construct: purchased Eurofins Discovery (DiscoverX KINOMEscan scanMAX)
Experimental: as §1

PIK3CA(C420R) = molecular target: T20, PIK3CA(C420R) (Homo sapiens, UniProt P42336, C420R)
T20 construct: purchased Eurofins Discovery (DiscoverX KINOMEscan scanMAX)
Experimental: as §1

PIK3CA(I800L) = molecular target: T21, PIK3CA(I800L) (Homo sapiens, UniProt P42336, I800L)
T21 construct: purchased Eurofins Discovery (DiscoverX KINOMEscan scanMAX)
Experimental: as §1

PIK4CB = molecular target: T22, PIK4CB (Homo sapiens, UniProt Q9UBF8)
T22 construct: purchased Eurofins Discovery (DiscoverX KINOMEscan scanMAX)
Experimental: as §1

PRKCI = molecular target: T23, PRKCI (Homo sapiens, UniProt P41743)
T23 construct: purchased Eurofins Discovery (DiscoverX KINOMEscan scanMAX)
Experimental: as §1

RAF1 = molecular target: T24, RAF1 (Homo sapiens, UniProt P04049)
T24 construct: purchased Eurofins Discovery (DiscoverX KINOMEscan scanMAX)
Experimental: as §1

RIPK1 = molecular target: T25, RIPK1 (Homo sapiens, UniProt Q13546)
T25 construct: purchased Eurofins Discovery (DiscoverX KINOMEscan scanMAX)
T25 sequence (Q13546 whole entry): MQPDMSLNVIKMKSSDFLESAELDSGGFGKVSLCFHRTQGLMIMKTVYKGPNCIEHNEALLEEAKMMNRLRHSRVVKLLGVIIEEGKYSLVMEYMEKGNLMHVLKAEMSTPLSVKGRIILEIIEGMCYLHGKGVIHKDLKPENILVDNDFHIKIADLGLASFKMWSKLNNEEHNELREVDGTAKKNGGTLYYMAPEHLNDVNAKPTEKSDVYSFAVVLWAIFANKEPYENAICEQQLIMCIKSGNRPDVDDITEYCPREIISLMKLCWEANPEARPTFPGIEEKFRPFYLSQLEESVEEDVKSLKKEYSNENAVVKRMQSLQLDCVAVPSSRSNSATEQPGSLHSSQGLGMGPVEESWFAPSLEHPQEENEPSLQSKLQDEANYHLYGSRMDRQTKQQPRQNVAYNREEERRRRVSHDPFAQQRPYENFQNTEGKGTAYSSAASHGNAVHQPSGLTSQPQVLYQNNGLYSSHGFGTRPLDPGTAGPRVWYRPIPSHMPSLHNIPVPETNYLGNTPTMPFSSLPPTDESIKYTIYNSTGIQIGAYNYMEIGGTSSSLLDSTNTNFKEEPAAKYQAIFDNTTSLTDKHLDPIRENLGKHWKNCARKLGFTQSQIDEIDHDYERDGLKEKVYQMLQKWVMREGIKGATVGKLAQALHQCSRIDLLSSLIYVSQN
Experimental: as §1

ROS1 = molecular target: T26, ROS1 (Homo sapiens, UniProt P08922)
T26 construct: purchased Eurofins Discovery (DiscoverX KINOMEscan scanMAX)
Experimental: as §1

[1] = molecular target: T27, RSK4(Kin.Dom.2-C-terminal) (Homo sapiens, UniProt Q9UK32)
T27 construct: RSK4(Kin.Dom.2-C-terminal); purchased Eurofins Discovery (DiscoverX KINOMEscan scanMAX)
T27 sequence (Q9UK32 401-745 limits assumed): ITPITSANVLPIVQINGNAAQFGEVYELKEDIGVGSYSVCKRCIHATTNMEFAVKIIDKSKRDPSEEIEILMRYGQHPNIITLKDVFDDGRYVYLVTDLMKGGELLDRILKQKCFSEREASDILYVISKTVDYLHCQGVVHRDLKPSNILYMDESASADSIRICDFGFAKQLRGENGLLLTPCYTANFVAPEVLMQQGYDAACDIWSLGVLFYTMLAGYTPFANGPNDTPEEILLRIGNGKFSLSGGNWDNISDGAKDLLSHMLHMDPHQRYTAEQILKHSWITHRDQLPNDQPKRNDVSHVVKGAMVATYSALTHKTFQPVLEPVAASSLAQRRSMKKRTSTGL
Experimental: as §1

SNARK = molecular target: T28, SNARK (Homo sapiens, UniProt Q9H093)
T28 construct: purchased Eurofins Discovery (DiscoverX KINOMEscan scanMAX)
Experimental: as §1

SNRK = molecular target: T29, SNRK (Homo sapiens, UniProt Q9NRH2)
T29 construct: purchased Eurofins Discovery (DiscoverX KINOMEscan scanMAX)
T29 sequence (Q9NRH2 whole entry): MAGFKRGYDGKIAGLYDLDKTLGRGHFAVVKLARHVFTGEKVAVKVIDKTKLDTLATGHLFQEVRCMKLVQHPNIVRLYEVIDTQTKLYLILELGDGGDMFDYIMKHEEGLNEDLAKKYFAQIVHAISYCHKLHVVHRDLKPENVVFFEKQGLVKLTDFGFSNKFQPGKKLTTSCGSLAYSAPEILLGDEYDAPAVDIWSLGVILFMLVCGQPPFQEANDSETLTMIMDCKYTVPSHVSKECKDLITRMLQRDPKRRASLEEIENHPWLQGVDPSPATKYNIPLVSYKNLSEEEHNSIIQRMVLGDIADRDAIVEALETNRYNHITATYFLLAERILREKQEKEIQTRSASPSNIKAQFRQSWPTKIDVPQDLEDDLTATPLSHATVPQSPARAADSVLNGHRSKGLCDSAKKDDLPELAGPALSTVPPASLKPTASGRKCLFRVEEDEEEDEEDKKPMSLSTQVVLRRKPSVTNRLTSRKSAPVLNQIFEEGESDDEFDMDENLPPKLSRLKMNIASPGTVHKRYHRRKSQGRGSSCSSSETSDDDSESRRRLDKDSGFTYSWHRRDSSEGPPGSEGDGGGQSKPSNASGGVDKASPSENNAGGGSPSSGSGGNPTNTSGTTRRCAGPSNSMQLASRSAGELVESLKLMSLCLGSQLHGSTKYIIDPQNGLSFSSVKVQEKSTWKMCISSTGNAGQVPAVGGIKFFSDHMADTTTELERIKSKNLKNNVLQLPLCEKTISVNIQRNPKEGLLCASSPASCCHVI
Experimental: as §1

TNK2 = molecular target: T30, TNK2 (Homo sapiens, UniProt Q07912)
T30 construct: purchased Eurofins Discovery (DiscoverX KINOMEscan scanMAX)
T30 sequence (Q07912 whole entry): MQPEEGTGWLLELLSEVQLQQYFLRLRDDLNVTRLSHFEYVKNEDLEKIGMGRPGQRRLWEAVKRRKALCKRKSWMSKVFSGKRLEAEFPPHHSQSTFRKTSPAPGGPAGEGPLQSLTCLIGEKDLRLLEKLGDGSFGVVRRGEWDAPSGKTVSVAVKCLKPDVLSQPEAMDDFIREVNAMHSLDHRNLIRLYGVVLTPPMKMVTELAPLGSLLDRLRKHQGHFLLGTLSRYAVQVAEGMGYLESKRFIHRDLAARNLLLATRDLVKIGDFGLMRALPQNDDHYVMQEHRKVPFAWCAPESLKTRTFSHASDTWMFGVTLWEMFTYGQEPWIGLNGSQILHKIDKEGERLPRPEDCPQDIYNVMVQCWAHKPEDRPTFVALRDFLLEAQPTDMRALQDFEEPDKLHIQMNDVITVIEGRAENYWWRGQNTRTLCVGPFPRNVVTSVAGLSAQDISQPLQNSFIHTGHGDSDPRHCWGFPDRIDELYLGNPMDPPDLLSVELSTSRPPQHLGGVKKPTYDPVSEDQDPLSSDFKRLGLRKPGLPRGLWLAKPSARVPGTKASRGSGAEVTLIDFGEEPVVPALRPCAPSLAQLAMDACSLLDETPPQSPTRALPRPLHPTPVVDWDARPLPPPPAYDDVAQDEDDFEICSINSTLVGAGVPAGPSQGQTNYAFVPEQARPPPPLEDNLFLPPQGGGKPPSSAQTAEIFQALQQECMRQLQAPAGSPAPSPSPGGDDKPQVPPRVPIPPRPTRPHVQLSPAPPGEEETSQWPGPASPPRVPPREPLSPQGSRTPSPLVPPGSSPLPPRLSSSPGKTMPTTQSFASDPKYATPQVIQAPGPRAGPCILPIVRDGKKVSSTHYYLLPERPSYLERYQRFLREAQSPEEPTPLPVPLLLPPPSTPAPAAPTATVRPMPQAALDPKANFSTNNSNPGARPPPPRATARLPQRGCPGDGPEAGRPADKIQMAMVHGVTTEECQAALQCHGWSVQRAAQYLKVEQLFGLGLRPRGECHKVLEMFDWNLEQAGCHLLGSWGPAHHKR
Experimental: as §1

ULK1 = molecular target: T31, ULK1 (Homo sapiens, UniProt O75385)
T31 construct: purchased Eurofins Discovery (DiscoverX KINOMEscan scanMAX)
Experimental: as §1

YSK4 = molecular target: T32, YSK4 (Homo sapiens, UniProt Q56UN5)
T32 construct: purchased Eurofins Discovery (DiscoverX KINOMEscan scanMAX)
Experimental: as §1

ZAP70 = molecular target: T33, ZAP70 (Homo sapiens, UniProt P43403)
T33 construct: purchased Eurofins Discovery (DiscoverX KINOMEscan scanMAX)
Experimental: as §1

p38-delta = molecular target: T34, p38-delta (Homo sapiens, UniProt O15264)
T34 construct: purchased Eurofins Discovery (DiscoverX KINOMEscan scanMAX)
Experimental: as §1

Cc1cc(Nc2ccc(F)c(CC3(C(=O)N4CCC(F)(CN5CCN(c6ccc(N7CCC(=O)NC7=O)cn6)CC5)CC4)CCN(Cc4cccc(Cl)c4F)CC3)n2)n[nH]1 [SK5527]
remaining binding at 0.1 µM (ACVR1; 100 nM): 68%
remaining binding at 1 µM (ACVR1; 1000 nM): 70%
remaining binding at 0.1 µM (ACVR1B; 100 nM): 100%
remaining binding at 1 µM (ACVR1B; 1000 nM): 100%
remaining binding at 0.1 µM (CLK3; 100 nM): 100%
remaining binding at 1 µM (CLK3; 1000 nM): 100%
remaining binding at 0.1 µM (CSF1R-autoinhibited; 100 nM): 100%
remaining binding at 1 µM (CSF1R-autoinhibited; 1000 nM): 100%
remaining binding at 0.1 µM (CSNK1G1; 100 nM): 100%
remaining binding at 1 µM (CSNK1G1; 1000 nM): 98%
remaining binding at 0.1 µM (ERK5; 100 nM): 100%
remaining binding at 1 µM (ERK5; 1000 nM): 93%
remaining binding at 0.1 µM (FAK; 100 nM): 90%
remaining binding at 1 µM (FAK; 1000 nM): 77%
remaining binding at 0.1 µM (FLT3(D835H); 100 nM): 89%
remaining binding at 1 µM (FLT3(D835H); 1000 nM): 54%
remaining binding at 0.1 µM (FRK; 100 nM): 100%
remaining binding at 1 µM (FRK; 1000 nM): 96%
remaining binding at 0.1 µM (HCK; 100 nM): 100%
remaining binding at 1 µM (HCK; 1000 nM): 100%
remaining binding at 0.1 µM (HIPK2; 100 nM): 100%
remaining binding at 1 µM (HIPK2; 1000 nM): 91%
remaining binding at 0.1 µM (HIPK3; 100 nM): 100%
remaining binding at 1 µM (HIPK3; 1000 nM): 66%
remaining binding at 0.1 µM (ICK; 100 nM): 92%
remaining binding at 1 µM (ICK; 1000 nM): 48%
remaining binding at 0.1 µM (IGF1R; 100 nM): 87%
remaining binding at 1 µM (IGF1R; 1000 nM): 89%
remaining binding at 0.1 µM (KIT(D816H); 100 nM): 100%
remaining binding at 1 µM (KIT(D816H); 1000 nM): 100%
remaining binding at 0.1 µM (MERTK; 100 nM): 90%
remaining binding at 1 µM (MERTK; 1000 nM): 54%
remaining binding at 0.1 µM (MYO3A; 100 nM): 100%
remaining binding at 1 µM (MYO3A; 1000 nM): 100%
remaining binding at 0.1 µM (NEK10; 100 nM): 100%
remaining binding at 1 µM (NEK10; 1000 nM): 100%
remaining binding at 0.1 µM (PCTK1; 100 nM): 89%
remaining binding at 1 µM (PCTK1; 1000 nM): 88%
remaining binding at 0.1 µM (PIK3CA(C420R); 100 nM): 63%
remaining binding at 1 µM (PIK3CA(C420R); 1000 nM): 100%
remaining binding at 0.1 µM (PIK3CA(I800L); 100 nM): 85%
remaining binding at 1 µM (PIK3CA(I800L); 1000 nM): 74%
remaining binding at 0.1 µM (PIK4CB; 100 nM): 73%
remaining binding at 1 µM (PIK4CB; 1000 nM): 65%
remaining binding at 0.1 µM (PRKCI; 100 nM): 92%
remaining binding at 1 µM (PRKCI; 1000 nM): 76%
remaining binding at 0.1 µM (RAF1; 100 nM): 100%
remaining binding at 1 µM (RAF1; 1000 nM): 100%
remaining binding at 0.1 µM (RIPK1; 100 nM): 100%
remaining binding at 1 µM (RIPK1; 1000 nM): 86%
remaining binding at 0.1 µM (ROS1; 100 nM): 61%
remaining binding at 1 µM (ROS1; 1000 nM): 16%
remaining binding at 0.1 µM ([1]; 100 nM): 75%
remaining binding at 1 µM ([1]; 1000 nM): 80%
remaining binding at 0.1 µM (SNARK; 100 nM): 86%
remaining binding at 1 µM (SNARK; 1000 nM): 76%
remaining binding at 0.1 µM (SNRK; 100 nM): 71%
remaining binding at 1 µM (SNRK; 1000 nM): 53%
remaining binding at 0.1 µM (TNK2; 100 nM): 62%
remaining binding at 1 µM (TNK2; 1000 nM): 25%
remaining binding at 0.1 µM (ULK1; 100 nM): 92%
remaining binding at 1 µM (ULK1; 1000 nM): 91%
remaining binding at 0.1 µM (YSK4; 100 nM): 72%
remaining binding at 1 µM (YSK4; 1000 nM): 72%
remaining binding at 0.1 µM (ZAP70; 100 nM): 97%
remaining binding at 1 µM (ZAP70; 1000 nM): 100%
remaining binding at 0.1 µM (p38-delta; 100 nM): 100%
remaining binding at 1 µM (p38-delta; 1000 nM): 100%
